What was measured:
[1] = target: T1, EGFR L858R/T790M/C797S (H1975-clone #25) (Homo sapiens, UniProt P00533, C797S/L858R/T790M); test: EGFR degradation, HTRF total-EGFR assay, H1975-clone #25 (LTC); assay type: cell-based; conditions: H1975-clone #25 L858R/T790M/C797S, 16 h treatment
T1 construct: expressed in transfected cells; host or cells: H1975 (clone #25), lentiviral transduction, endogenous EGFR knocked out
Description: (§1) H1975-clone #28 (Del19/T790M/C797S, or abbr: DTC), H1975-clone #23 (Del19/C797S, or abbr: DC), H1975-clone #25 (L858R/T790M/C797S, or abbr: LTC) and H1975-clone #8 (L858R/C797S, or abbr: LC). EGFR-Del19/T790M/C797S, EGFR-Del19/C797S, EGFR-L858R/T790M/C797S and EGFR-L858R/C797S were stably expressed in H1975 cell lines by lentivirus-mediated over-expression, respectively. The EGFR over-expressed cells then underwent knockout, in which the EGFR targeting sgRNA was designed to only target the endogenous EGFR copies and preserve the exogenous EGFR copies. Followed by the knockout, the edited H1975 cells were seeded in 96 well plates at the concentration of 1 cell/well, cultured for about 2 weeks to allow single clones formation. The formed clones were screened by DNA sequencing and whole exon sequencing analysis for the desired edition. H1975-clone #28, H1975-clone #23, H1975-clone #25 and H1975-clone #8 were finally confirmed as homozygous Del19/T790M/C797S EGFR, Del19/C797S EGFR, L858R/T790M/C797S EGFR and L858R/C797S EGFR clones, respectively.
(§2) H1975-#25, H1975-#28, H1975-#23 and H1975-#8 cells are treated with compounds diluted in 0.2% DMSO cell culture medium on day 2, incubate for 16 h, 37° C., 5% CO2. The final concentration of compounds in all assay is start with 10 μM, 5-fold dilution, total 8 doses were included.
(§3) Total-EGFR cellular kit(64NG1PEH) were used for evaluating EGFR degradation.
(§4) After 16 h treatment, add HTRF lysis buffer to each well; seal the plate and incubate 1 hour at room temperature on a plate shaker; Once the cells are lysed, 16 μL of cell lysate are transferred to a PE 384-well HTRF detection plate; 4 μL of pre-mixed HTRF antibodies are added to each well; cover the plate with a plate sealer, spin 1000 rpm for 1 min, incubate overnight at room temperature; read on BMG PheraStar with HTRF protocol (337 nm-665 nm-620 nm).
(§5) The inhibition (degradation) percentage of the compound was calculated by the following equation:
(§6) Inhibition percentage of Compound=100−100×(Signal−low control)/(High control−low control), wherein signal=each test compound group
(§7) High control=Cell group with added DMSO and without compound, indicating microplate readings without EGFR degradation.
(§8) Imax (Dmax) is the maximum percentage of inhibition (degradation).
(§9) The IC50 (DC50) value of a compound can be obtained by fitting the following equation
(§10) Wherein, X and Y are known values, and IC50, Hillslope, Top and Bottom are the parameters obtained by fitting with software. Y is the inhibition percentage (calculated from the equation), X is the concentration of the compound; IC50 is the concentration of the compound when the 50% inhibition is reached. The smaller the IC50 value is, the stronger the inhibitory ability of the compound is. Vice versa, the higher the IC50 value is, the weaker the ability the inhibitory ability of the compound is; Hillslope represents the slope of the fitted curve, generally around 1*; Bottom represents the minimum value of the curve obtained by data fitting, which is generally 0%±20%; Top represents the maximum value of the curve obtained by data fitting, which is generally 100%±20%. The experimental data were fitted by calculating and analyzing with Dotmatics data analysis software.

[2] = target: EGFR Del19/T790M/C797S (H1975-clone #28) (Homo sapiens, UniProt P00533, T790M/C797S, form not given); test: EGFR degradation, HTRF total-EGFR assay, H1975-clone #28 (DTC); assay type: cell-based; conditions: H1975-clone #28 Del19/T790M/C797S, 16 h treatment
Chain of EGFR Del19/T790M/C797S (H1975-clone #28) (P00533 with tags, fused parts or gaps DEL746-750/T790M/C797S, form open): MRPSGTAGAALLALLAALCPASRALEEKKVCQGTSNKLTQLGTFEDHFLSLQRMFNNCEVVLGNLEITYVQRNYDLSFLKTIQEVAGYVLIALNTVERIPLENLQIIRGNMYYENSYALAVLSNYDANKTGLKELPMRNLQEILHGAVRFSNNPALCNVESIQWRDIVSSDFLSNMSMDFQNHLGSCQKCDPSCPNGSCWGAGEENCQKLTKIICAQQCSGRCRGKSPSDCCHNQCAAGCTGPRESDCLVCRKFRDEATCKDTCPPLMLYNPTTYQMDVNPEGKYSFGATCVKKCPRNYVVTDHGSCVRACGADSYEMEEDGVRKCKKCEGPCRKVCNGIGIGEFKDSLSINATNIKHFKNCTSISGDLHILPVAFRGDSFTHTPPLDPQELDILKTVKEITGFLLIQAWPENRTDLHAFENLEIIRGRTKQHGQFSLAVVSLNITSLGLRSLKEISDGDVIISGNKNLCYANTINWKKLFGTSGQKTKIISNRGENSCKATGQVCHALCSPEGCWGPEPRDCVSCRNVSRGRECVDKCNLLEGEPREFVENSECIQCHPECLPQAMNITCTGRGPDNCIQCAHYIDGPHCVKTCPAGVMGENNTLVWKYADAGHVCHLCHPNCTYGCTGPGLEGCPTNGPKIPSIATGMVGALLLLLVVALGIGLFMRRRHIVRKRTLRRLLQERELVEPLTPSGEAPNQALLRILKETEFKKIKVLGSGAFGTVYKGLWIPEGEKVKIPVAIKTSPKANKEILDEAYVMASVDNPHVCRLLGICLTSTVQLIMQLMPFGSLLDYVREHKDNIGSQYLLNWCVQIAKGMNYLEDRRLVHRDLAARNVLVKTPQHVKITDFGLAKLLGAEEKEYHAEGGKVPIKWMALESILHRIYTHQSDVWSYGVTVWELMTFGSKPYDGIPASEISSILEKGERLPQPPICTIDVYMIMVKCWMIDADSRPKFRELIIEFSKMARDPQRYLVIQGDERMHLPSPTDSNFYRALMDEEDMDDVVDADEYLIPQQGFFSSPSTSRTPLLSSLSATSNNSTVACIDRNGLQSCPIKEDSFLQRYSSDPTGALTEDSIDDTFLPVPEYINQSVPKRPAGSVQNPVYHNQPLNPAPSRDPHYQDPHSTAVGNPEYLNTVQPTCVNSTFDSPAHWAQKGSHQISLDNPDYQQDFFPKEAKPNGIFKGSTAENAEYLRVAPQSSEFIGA
Description: as §1, §2, §3, §4, §5, §6, §7, §8, §9, §10

T1 sequence (P00533 25-1210 T790M/C797S/L858R): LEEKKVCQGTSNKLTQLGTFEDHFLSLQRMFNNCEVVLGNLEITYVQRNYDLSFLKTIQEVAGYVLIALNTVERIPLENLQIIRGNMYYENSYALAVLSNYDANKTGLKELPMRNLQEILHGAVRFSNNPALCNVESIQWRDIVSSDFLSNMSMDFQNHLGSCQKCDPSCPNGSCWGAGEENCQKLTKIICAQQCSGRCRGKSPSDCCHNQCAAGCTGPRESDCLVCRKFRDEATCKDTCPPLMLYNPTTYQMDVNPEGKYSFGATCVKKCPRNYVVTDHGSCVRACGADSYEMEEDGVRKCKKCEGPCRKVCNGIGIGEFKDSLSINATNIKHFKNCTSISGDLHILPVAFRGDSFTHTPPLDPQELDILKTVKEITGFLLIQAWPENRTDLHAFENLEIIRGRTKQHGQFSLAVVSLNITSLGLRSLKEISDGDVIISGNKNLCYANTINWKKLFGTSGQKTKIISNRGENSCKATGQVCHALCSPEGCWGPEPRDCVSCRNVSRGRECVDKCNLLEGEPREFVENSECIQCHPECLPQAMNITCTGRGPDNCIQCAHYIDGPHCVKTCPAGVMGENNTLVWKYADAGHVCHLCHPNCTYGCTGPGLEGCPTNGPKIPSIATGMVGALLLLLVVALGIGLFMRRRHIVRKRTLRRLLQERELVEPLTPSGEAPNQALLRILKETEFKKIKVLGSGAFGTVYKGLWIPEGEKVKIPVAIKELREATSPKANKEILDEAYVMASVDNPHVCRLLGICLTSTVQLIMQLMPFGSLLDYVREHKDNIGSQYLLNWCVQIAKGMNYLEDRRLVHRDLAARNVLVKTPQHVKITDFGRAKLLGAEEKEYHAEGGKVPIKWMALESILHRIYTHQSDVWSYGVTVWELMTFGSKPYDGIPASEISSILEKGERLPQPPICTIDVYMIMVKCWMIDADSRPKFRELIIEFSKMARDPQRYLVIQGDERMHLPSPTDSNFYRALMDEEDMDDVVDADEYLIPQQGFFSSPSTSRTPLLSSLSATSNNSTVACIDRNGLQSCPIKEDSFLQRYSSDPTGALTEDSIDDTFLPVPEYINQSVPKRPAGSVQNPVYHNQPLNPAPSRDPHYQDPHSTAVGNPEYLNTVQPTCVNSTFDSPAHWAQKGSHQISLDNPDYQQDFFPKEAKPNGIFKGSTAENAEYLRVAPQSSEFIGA

| Degradation H1975 # 25-LTC [1] | Degradation H1975 # 28 DTC [2] | Structure (SMILES) |
| --- | --- | --- |
| 90.6 | 78.2 | Cc1cc2cc(n1)-c1cnn(C)c1OC[C@H]1C[C@@H](CN3/C(=N/C2=O)Nc2ccc(N4C[C@@H]5C[C@H]4CN5C4CCN(c5ccc(C6CCC(=O)NC6=O)nc5C)CC4)cc23)C1 (stereo partly drawn) [Example 117, 3-(5-(4-((1S,4S)-5-((7^1s,7^3R,E)-1^1,2^6-dimethyl-3-oxo-5^2,5^3-dihydro-1^1H,5^1H-9-oxa-4-aza-5(2,1)-benzo[d]imidazola-2(2,4)-pyridina-1(4,5)-pyrazola-7(1,3)-cyclobutanacyclononaphane-5^6-yl)-2,5-diazabicyclo[2,2,1]heptan-2-yl)piperidin-1-yl)-6-methylpyridin-2-yl)piperidine-2,6-dione] |
| 87.0 | 85.0 | Cc1cc2cc(n1)-c1cnn(C)c1OC[C@H]1C[C@@H](CN3/C(=N/C2=O)Nc2ccc(N(C)C4CC5(C4)CN(C4CCN(c6cc(F)c(C7CCC(=O)NC7=O)c(F)c6)CC4)C5)cc23)C1 (stereo partly drawn) [Example 136, (R)-3-(4-(4-(6-(((7^1s,7^3s,E)-1^1,2^6-dimethyl-3-oxo-5^2,5^3-dihydro-1^1H,5^1H-9-oxa-4-aza-5(2,1)-benzo[d]imidazola-2(2,4)-pyridina-1(4,5)-pyrazola-7(1,3)-cyclobutanacyclononaphane-5^6-yl)(methyl)amino)-2-azaspiro[3.3]heptan-2-yl)piperidin-1-yl)-2,6-difluorophenyl)piperidine-2,6-dione] |
| 92.1 | 90.8 | Cc1cc2cc(n1)-c1cnn(C)c1OC[C@H]1C[C@@H](CN3/C(=N/C2=O)Nc2ccc(N4CCN(C5CCN(c6ccc(C7CCC(=O)NC7=O)nc6C)CC5)C(=O)C4)cc23)C1 (some centres unmarked) [Example 26, 3-(5-(4-(4-((7^1s,7^3s,E)-1^1,2^6-dimethyl-3-oxo-5^2,5^3-dihydro-1^1H,5^1H-9-oxa-4-aza-5(2,1)-benzo[d]imidazola-2(2,4)-pyridina-1(4,5)-pyrazola-7(1,3)-cyclobutanacyclononaphane-5^6-yl)-2-oxopiperazin-1-yl)piperidin-1-yl)-6-methylpyridin-2-yl)piperidine-2,6-dione] |
| 91.3 | 80.7 | Cc1cc2cc(n1)-c1cnn(C)c1OC[C@H]1C[C@@H](CN3/C(=N/C2=O)Nc2ccc(N4CCC(N5CCN(c6ccc(C7CCC(=O)NC7=O)nc6C)C[C@@H]5C)CC4)cc23)C1 (stereo partly drawn) [Example 44, 3-(5-((S)-4-(1-((7^1s,7^3R,E)-1^1,2^6-dimethyl-3-oxo-5^2,5^3-dihydro-1^1H,5^1H-9-oxa-4-aza-5(2,1)-benzo[d]imidazola-2(2,4)-pyridina-1(4,5)-pyrazola-7(1,3)-cyclobutanacyclononaphane-5^6-yl)piperidin-4-yl)-3-methylpiperazin-1-yl)-6-methylpyridin-2-yl)piperidine-2,6-dione] |
| 89.8 | 90.6 | Cc1cc2cc(n1)-c1cnn(C)c1OC[C@H]1C[C@@H](CN3/C(=N/C2=O)Nc2ccc(N4CCN(C5CCN(c6cc(F)c([C@H]7CCC(=O)NC7=O)c(F)c6)CC5)CC4=O)cc23)C1 [Example 10, (R)-3-(4-(4-(4-((7^1s,7^3s,E)-1^1,2^6-dimethyl-3-oxo-5^2,5^3-dihydro-1^1H,5^1H-9-oxa-4-aza-5(2,1)-benzo[d]imidazola-2(2,4)-pyridina-1(4,5)-pyrazola-7(1,3)-cyclobutanacyclononaphane-5^6-yl)-3-oxopiperazin-1-yl)piperidin-1-yl)-2,6-difluorophenyl)piperidine-2,6-dione] |

The next lines start with the compound.

| Structure (SMILES) | Degradation H1975 # 25-LTC [1] | Degradation H1975 # 28 DTC [2] |
| --- | --- | --- |
| Cc1cc2cc(n1)-c1cnn(C)c1OC[C@H]1C[C@@H](CN3/C(=N/C2=O)Nc2ccc(N4CCN(C5CN(c6cc(F)c([C@H]7CCC(=O)NC7=O)c(F)c6)C5)CC4)cc23)C1 [Example 29, (R)-3-(4-(3-(4-((7^1s,7^3s,E)-1^1,2^6-dimethyl-3-oxo-5^2,5^3-dihydro-1^1H,5^1H-9-oxa-4-aza-5(2,1)-benzo[d]imidazola-2(2,4)-pyridina-1(4,5)-pyrazola-7(1,3)-cyclobutanacyclononaphane-5^6-yl)piperazin-1-yl)azetidin-1-yl)-2,6-difluorophenyl)piperidine-2,6-dione] | 42.6 | 78.3 |
| COC[C@@H]1CN(c2ccc3c(c2)N2C[C@H]4C[C@@H](COc5c(cnn5C)-c5cc(cc(C)n5)C(=O)/N=C/2N3)C4)CCN1C1CCN(c2cc(F)c([C@H]3CCC(=O)NC3=O)c(F)c2)CC1 [Example 20, (R)-3-(4-(4-((S)-4-((7^1s,7^3R,E)-1^1,2^6-dimethyl-3-oxo-5^2,5^3-dihydro-1^1H,5^1H-9-oxa-4-aza-5(2,1)-benzo[d]imidazola-2(2,4)-pyridina-1(4,5)-pyrazola-7(1,3)-cyclobutanacyclononaphane-5^6-yl)-2-(methoxymethyl)piperazin-1-yl)piperidin-1-yl)-2,6-difluorophenyl)piperidine-2,6-dione] | 92.5 | 89.8 |
| Cc1cc2cc(n1)-c1cnn(C)c1OC[C@H]1C[C@@H](CN3/C(=N/C2=O)Nc2ccc(N4CCN(C5CCN(c6ccc(C7CCC(=O)NC7=O)nc6C)CC5)C[C@H]4C)cc23)C1 (stereo partly drawn) [Example 34, 3-(5-(4-((R)-4-((7^1s,7^3S,E)-1^1,2^6-dimethyl-3-oxo-5^2,5^3-dihydro-1^1H,5^1H-9-oxa-4-aza-5(2,1)-benzo[d]imidazola-2(2,4)-pyridina-1(4,5)-pyrazola-7(1,3)-cyclobutanacyclononaphane-5^6-yl)-3-methylpiperazin-1-yl)piperidin-1-yl)-6-methylpyridin-2-yl)piperidine-2,6-dione] | 93.3 | 89.6 |
| COC[C@H]1CN(c2ccc3c(c2)N2C[C@H]4C[C@@H](COc5c(cnn5C)-c5cc(cc(C)n5)C(=O)/N=C/2N3)C4)CCN1C1CCN(c2cnc(C3CCC(=O)NC3=O)cc2C)CC1 (stereo partly drawn) [Example 23, 3-(5-(4-((R)-4-((7^1s,7^3S,E)-1^1,2^6-dimethyl-3-oxo-5^2,5^3-dihydro-1^1H,5^1H-9-oxa-4-aza-5(2,1)-benzo[d]imidazola-2(2,4)-pyridina-1(4,5)-pyrazola-7(1,3)-cyclobutanacyclononaphane-5^6-yl)-2-(methoxymethyl)piperazin-1-yl)piperidin-1-yl)-4-methylpyridin-2-yl)piperidine-2,6-dione] | 91.3 | 87.0 |
| Cc1cc2cc(n1)-c1cnn(C)c1OC[C@H]1C[C@@H](CN3/C(=N/C2=O)Nc2ccc(CN4CCN(C(=O)C5CN(c6cc(F)c([C@H]7CCC(=O)NC7=O)c(F)c6)C5)CC4)cc23)C1 [Example 3, (R)-3-(4-(3-(4-(((7^1s,7^3s,E)-1^1,2^6-dimethyl-3-oxo-5^2,5^3-dihydro-1^1H,5^1H-9-oxa-4-aza-5(2,1)-benzo[d]imidazola-2(2,4)-pyridina-1(4,5)-pyrazola-7(1,3)-cyclobutanacyclononaphane-5^6-yl)methyl)piperazine-1-carbonyl)azetidin-1-yl)-2,6-difluorophenyl)piperidine-2,6-dione] | 85.6 | 86.7 |

Reference: patent US20250332266A1, “COMPOUNDS FOR THE DEGRADATION OF EGFR KINASE” (BeiGene Switzerland GmbH, priority 2022, published 2025)
